From US8119681B2, “2-[1-phenyl-5-hydroxy or methoxy-4alpha-methyl-hexahydrocyclopenta [ƒ]indazole-5-YL]ethyl phenyl derivatives as glucocorticoid receptor ligands” (Merck Sharp & Dohme Corp., priority 2006, dated 2012)

What follows are molecules tested against T1, human GR (Homo sapiens, UniProt P04150) (assay: Transrepression Assay (GITAR), TNFα-β-lactamase reporter gene in U937 cells). Settings: U-937; 100 nM dexamethasone = 100% activity; read-out: maximal activity in the transrepression assay.
T1 sequence (P04150 1-777): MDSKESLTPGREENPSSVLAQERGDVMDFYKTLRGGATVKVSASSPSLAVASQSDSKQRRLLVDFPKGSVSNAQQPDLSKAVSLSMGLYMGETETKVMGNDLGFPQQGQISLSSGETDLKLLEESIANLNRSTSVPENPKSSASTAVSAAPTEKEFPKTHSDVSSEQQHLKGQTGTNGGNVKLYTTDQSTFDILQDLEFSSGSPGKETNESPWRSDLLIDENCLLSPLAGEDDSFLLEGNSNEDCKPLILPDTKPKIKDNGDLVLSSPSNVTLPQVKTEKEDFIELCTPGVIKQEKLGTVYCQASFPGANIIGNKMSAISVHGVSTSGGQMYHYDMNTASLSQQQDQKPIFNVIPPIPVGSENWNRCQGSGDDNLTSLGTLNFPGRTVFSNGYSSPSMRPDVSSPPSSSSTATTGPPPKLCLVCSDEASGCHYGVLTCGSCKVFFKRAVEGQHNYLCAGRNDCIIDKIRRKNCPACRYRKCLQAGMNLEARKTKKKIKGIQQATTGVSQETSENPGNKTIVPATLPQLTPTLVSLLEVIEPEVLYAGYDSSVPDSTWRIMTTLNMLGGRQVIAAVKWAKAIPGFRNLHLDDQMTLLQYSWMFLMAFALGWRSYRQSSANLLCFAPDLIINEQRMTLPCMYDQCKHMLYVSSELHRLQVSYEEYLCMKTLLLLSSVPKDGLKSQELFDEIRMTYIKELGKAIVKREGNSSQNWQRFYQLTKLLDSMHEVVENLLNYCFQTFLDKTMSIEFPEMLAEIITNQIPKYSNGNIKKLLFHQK
Format: cell-based
Set-up: U937 cells contain an endogenous glucocorticoid receptor (GR); endogenous in cells; host or cells: U937 cells stably transfected with the TNF-α promoter/β-lactamase reporter only
Excerpt: Transrepression Assay (GITAR)
This assay assesses the ability of test compounds to control transcription from the TNFα-β-lactamase reporter gene in U937 cells, a human myelomonocytic leukemia cell line that naturally expresses the human GR. The assay measures compound dependent-repression of the TNFa promoter linked to a reporter gene.
The human U937 cells that had been stably transfected with the TNF-α promoter driving β-lactamase are used for this assay. U937 cells contain an endogenous glucocorticoid receptor (GR). […] 50,000 cells/well are plated in 96 well black-walled plates the day of assay. Test compounds are added 10 μL/well, and cells are incubated at 37° C. for 30˜45 min. For assaying compounds, first dilute 1:10 in DMSO to make 1 mM, then further dilute 1:100 in medium to make 10× stock prior to adding to the cells. Add 50 ng/ml PMA (Sigma, cat# P8139) 10 μL/well to a final concentration 5 ng/ml, and 1 μg/ml LPS (Sigma, cat# L4130) 10 μL/well to a final concentration 100 ng/ml. Incubate cells at 370 C overnight for ˜18 hr. PMA is stored frozen as 100 μg/ml stock in DMSO. Dilute 1:10 in DMSO for a working stock of 10 μg/ml and store at −20 C. For assaying, dilute the 10 μg/ml working stock 1:200 in medium to make a 10× solution (50 ng/ml). Store frozen LPS at 1 mg/ml in PBS, dilute 1:1000 in medium to make 10× (1 μg/ml) for the assay. Add 6× loading buffer (CCF2-AM) 20 μL/well, and incubate at room temperature for 70˜90 min. […] The activity repressed by 100 nM dexamethasone alone is set as 100% activity.

| SMILES | Emax [%] |
| --- | --- |
| C[C@]12Cc3cnn(-c4ccc(F)cc4)c3C=C1CC[C@@]2(O)CCc1ccccc1CC(=O)NCC(F)(F)F [Example 56, 2-(2-{2-[(4αS,5R)-1-(4-fluorophenyl)-5-hydroxy-4α-methyl-1,4,4α,5,6,7-hexahydrocyclopenta[f]indazol-5-yl]ethyl}phenyl)-N-(2,2,2-trifluoroethyl)acetamide] | 5 to 100 |
| C[C@]12Cc3cnn(-c4ccc(F)cc4)c3C=C1CC[C@@]2(O)CCc1ccccc1C(=O)N1CC[C@@H](O)C1 [Example 58, (4αS,5R)-1-(4-fluorophenyl)-5-[2-(2-{[(3R)-3-hydroxypyrrolidin-1-yl]carbonyl}phenyl)ethyl]-4α-methyl-1,4,4α,5,6,7-hexahydrocyclopenta[f]indazol-5-ol] | 5 to 100 |
| C[C@]12Cc3cnn(-c4ccc(F)cc4)c3C=C1CC[C@@]2(O)CCc1ccccc1C(N)=O [Example 60, 2-{2-[(4αS,5R)-1-(4-fluorophenyl)-5-hydroxy-4α-methyl-1,4,4α,5,6,7-hexahydrocyclopenta[f]indazol-5-yl]ethyl}benzamide] | 5 to 100 |
| CC1(NC(=O)c2c(F)cccc2CC[C@]2(O)CCC3=Cc4c(cnn4-c4ccc(F)cc4)C[C@@]32C)CC1 [Example 63, 2-fluoro-6-{2-[(4αS,5R)-1-(4-fluorophenyl)-5-hydroxy-4α-methyl-1,4,4α,5,6,7-hexahydrocyclopenta[f]indazol-5-yl]ethyl}-N-(1-methylcyclopropyl)benzamide] | 5 to 100 |
| C[C@]12Cc3cnn(-c4ccc(F)cc4)c3C=C1CC[C@@]2(O)CCc1ccccc1C(=O)NCC(F)(F)F [Example 64, 2-{2-[(4αS,5R)-1-(4-fluorophenyl)-5-hydroxy-4α-methyl-1,4,4α,5,6,7-hexahydrocyclopenta[f]indazol-5-yl]ethyl}-N-(2,2,2-trifluoroethyl)benzamide] | 5 to 100 |
| C[C@]12Cc3cnn(-c4ccc(F)cc4)c3C=C1CC[C@@]2(O)CCc1cccc(F)c1C(=O)N1CCC1 [Example 65, (4αS,5R)-5-{2-[2-(azetidin-1-ylcarbonyl)-3-fluorophenyl]ethyl}-1-(4-fluorophenyl)-4α-methyl-1,4,4α,5,6,7-hexahydrocyclopenta[f]indazol-5-ol] | 5 to 100 |
| C[C@]12Cc3cnn(-c4ccc(F)cc4)c3C=C1CC[C@@]2(O)CCc1ccccc1C(=O)N1CCCC(F)(F)C1 [Example 66, (4αS,5R)-5-(2-{2-[(3,3-difluoropiperidin-1-yl)carbonyl]phenyl}ethyl)-1-(4-fluorophenyl)-4α-methyl-1,4,4α,5,6,7-hexahydrocyclopenta[f]indazol-5-ol] | 5 to 100 |
| CC(C)NC(=O)c1c(F)cccc1CC[C@]1(O)CCC2=Cc3c(cnn3-c3ccc(F)cc3)C[C@@]21C [Example 67, 2-fluoro-6-{2-[(4αS,5R)-1-(4-fluorophenyl)-5-hydroxy-4α-methyl-1,4,4α,5,6,7-hexahydrocyclopenta[f]indazol-5-yl]ethyl}-N-isopropylbenzamide] | 5 to 100 |
| C[C@]12Cc3cnn(-c4ccc(F)cc4)c3C=C1CC[C@@]2(O)CCc1cccc(F)c1C(N)=O [Example 68, 2-fluoro-6-{2-[(4αS,5R)-1-(4-fluorophenyl)-5-hydroxy-4α-methyl-1,4,4α,5,6,7-hexahydrocyclopenta[f]indazol-5-yl]ethyl}benzamide] | 5 to 100 |
| C[C@]12Cc3cnn(-c4ccc(F)cc4)c3C=C1CC[C@@]2(O)CCc1cccc(F)c1C(=O)N1CC[C@H](F)C1 [Example 69, (4αS,5R)-5-[2-(3-fluoro-2-{[(3S)-3-fluoropyrrolidin-1-yl]carbonyl}phenyl)ethyl]-1-(4-fluorophenyl)-4α-methyl-1,4,4α,5,6,7-hexahydrocyclopenta[f]indazol-5-ol] | 5 to 100 |
| CC(C)(NC(=O)c1ccccc1CC[C@]1(O)CCC2=Cc3c(cnn3-c3ccc(F)cc3)C[C@@]21C)C(N)=O [Example 70, N-(2-amino-1,1-dimethyl-2-oxoethyl)-2-{2-[(4αS,5R)-1-(4-fluorophenyl)-5-hydroxy-4α-methyl-1,4,4α,5,6,7-hexahydrocyclopenta[f]indazol-5-yl]ethyl}benzamide] | 5 to 100 |
| CCNC(=O)C(C)(C)NC(=O)c1ccccc1CC[C@]1(O)CCC2=Cc3c(cnn3-c3ccc(F)cc3)C[C@@]21C [Example 71, N-[2-(ethylamino)-1,1-dimethyl-2-oxoethyl]-2-{2-[(4αS,5R)-1-(4-fluorophenyl)-5-hydroxy-4α-methyl-1,4,4α,5,6,7-hexahydrocyclopenta[f]indazol-5-yl]ethyl}benzamide] | 5 to 100 |
| COC(=O)[C@@H](C)NC(=O)c1ccccc1CC[C@]1(O)CCC2=Cc3c(cnn3-c3ccc(F)cc3)C[C@@]21C [Example 72, methyl N-(2-{2-[(4αS,5R)-1-(4-fluorophenyl)-5-hydroxy-4α-methyl-1,4,4α,5,6,7-hexahydrocyclopenta[f]indazol-5-yl]ethyl}benzoyl)-D-alaninate] | 5 to 100 |
| CC1CN1C(=O)c1ccccc1CC[C@]1(O)CCC2=Cc3c(cnn3-c3ccc(F)cc3)C[C@@]21C (stereo partly drawn) [Example 73, (4αS,5R)-1-(4-fluorophenyl)-4α-methyl-5-(2-{2-[(2-methylaziridin-1-yl)carbonyl]phenyl}ethyl)-1,4,4α,5,6,7-hexahydrocyclopenta[f]indazol-5-ol] | 5 to 100 |
| C[C@]12Cc3cnn(-c4ccc(F)cc4)c3C=C1CC[C@@]2(O)CCc1ccccc1C(=O)N1CCC(F)(F)C1 [Example 74, (4αS,5R)-5-(2-{2-[(3,3-difluoropyrrolidin-1-yl)carbonyl]phenyl}ethyl)-1-(4-fluorophenyl)-4α-methyl-1,4,4α,5,6,7-hexahydrocyclopenta[f]indazol-5-ol] | 5 to 100 |
| CNC(=O)C(C)(C)NC(=O)c1ccccc1CC[C@]1(O)CCC2=Cc3c(cnn3-c3ccc(F)cc3)C[C@@]21C [Example 75, N-[1,1-dimethyl-2-(methylamino)-2-oxoethyl]-2-{2-[(4αS,5R)-1-(4-fluorophenyl)-5-hydroxy-4α-methyl-1,4,4α,5,6,7-hexahydrocyclopenta[f]indazol-5-yl]ethyl}benzamide] | 5 to 100 |
| C[C@]12Cc3cnn(-c4ccc(F)cc4)c3C=C1CC[C@@]2(O)CCc1cccc(F)c1C(=O)N1CCCC(F)(F)C1 [Example 76, (4αS,5R)-5-(2-{2-[(3,3-difluoropiperidin-1-yl)carbonyl]-3-fluorophenyl}ethyl)-1-(4-fluorophenyl)-4α-methyl-1,4,4α,5,6,7-hexahydrocyclopenta[f]indazol-5-ol] | 5 to 100 |
| C[C@]12Cc3cnn(-c4ccc(F)cc4)c3C=C1CC[C@@]2(O)CCc1cccc(F)c1C(=O)N1CCC(F)(F)C1 [Example 77, (4αS,5R)-5-(2-{2-[(3,3-difluoropyrrolidin-1-yl)carbonyl]-3-fluorophenyl}ethyl)-1-(4-fluorophenyl)-4α-methyl-1,4,4α,5,6,7-hexahydrocyclopenta[f]indazol-5-ol] | 5 to 100 |
| C[C@]12Cc3cnn(-c4ccc(F)cc4)c3C=C1CC[C@@]2(O)CCc1cccc(F)c1CNS(=O)(=O)c1ccccc1 [Example 78, N-(2-fluoro-6-{2-[(4αS,5R)-1-(4-fluorophenyl)-5-hydroxy-4α-methyl-1,4,4α,5,6,7-hexahydrocyclopenta[f]indazol-5-yl]ethyl}benzyl)benzenesulfonamide] | 5 to 100 |
